Assay results: patent US20250276996A1, “CATIONICALLY-ENFRAMED HIGH DENSITY AROMATIC PEPTIDES” (Research Foundation of the City University of New York, priority 2022, published 2025)
Values joined by “and” are separate entries in the source; they are usually repeats but may differ in a detail not shown here. Equal entries are not always repeated. Non-standard residues stand in square brackets, D forms with d. Residues, ends and D or L forms follow the SMILES beside them. *: point of attachment. Biotin = O=C1N[C@H]2[C@H](CS[C@H]2CCCCC(=O)*)N1

Legend:
ARPE-19 cells = assay: Mitochondrial potential in the presence of CCCP (TMRM); format: cell-based; details: 10 μM CCCP, TMRM
Procedure: Effects of peptides on mitochondrial potential in the presence of Carbonyl cyanide m-chlorophenylhydrazone (CCCP): ARPE-19 cells (ATTC-CRL-2302) (5×10^4 cells) were seeded in 35 mm glass dishes in DMEM/F12 medium with 10% FBS for 24 hr. On the day of the experiment, cells were cultured in DMEM/F12 in the presence of different concentrations of biotin-HDAP2 for 60 min (FIG. 17B). Then, cells were incubated with 10 μM CCCP in the presence of 5 nM TMRM, 100 nM Mito View Green, and 10 μg/ml Hoechst 33342 for 15 min at 37° C. Fluorescent images were immediately obtained with a Nikon Eclipse 50i fluorescence microscope (60× objective) using FITC (Mito View Green), Texas Red (TMRM), and DAPI (Hoechst) filters. Images were collected from three independent experiments, using 4-6 random fields for each treatment group, and imaged and analyzed as described for NR.

MDBK cells [1] = assay: Serum starvation cell death, methylene blue staining; format: cell-based, bovine; details: serum-free media 5-7 days, read-out: EC50, prevention of cell death
Procedure: MDBK cells were incubated in serum-free media for 5-7 days in the presence or absence of different concentrations of biotin-HDAP2. At the end of the incubation period, media was removed, the cells were fixed in 4% PFA and then stained with Methylene Blue Loeffler for 30 minutes. Images were obtained using a Tiffen Zoom Camera, interfaced with PC Image, and analyzed using ImageJ NIH software. Experiments were conducted 5 times in triplicates for each experimental condition. Biotin-HDAP2 prevented cell death in a dose-dependent manner with EC50 of about 300 nM (FIG. 4).

[2] = Nile Red fluorescence shift in POPC liposomes; format: binding
Procedure: The resulting multilamellar vesicles were vortexed lightly and sized into small unilamellar vesicles by heated bath sonication for 25 min. All liposomes were cooled to ambient temperature before use.
Interactions between biotin-HDAP2 and Phospholipid liposomes measured by Nile Red fluorescence: The hydrophobicity of biotin-HDAP2 and phospholipids was examined by changes in the spectral fluorescence shift and intensity of Nile Red (NR, 10 μM). NR increases its intensity of fluorescence when combined with the hydrophobic environments of acyl chains of phospholipids, and produces a blue shift when hydrophobicity is increased. All experiments were done with 30 μM of either CL or POPC and 30 μM of biotin-HDAP2 in 10 mM Hepes (pH 7.4) to optimize the electrostatic interactions of peptides with phospholipids. The solvents used to dissolve the various phospholipids (chloroform, methanol, and ethanol) had negligible effects on the fluorescence spectra.

MDBK cells [3] = assay: Cellular oxidative stress in serum-starved cells (CM-H2DCFDA); format: cell-based, bovine; details: 1 μM
Procedure: MDBK cells incubated in serum free media for 5-7 days in the presence or absence of 1 μM of biotin-HDAP2. At the end of the incubation period, 100 nM CM-H2DCFDA (oxidative stress marker) was added to the cells and incubated for 30 minutes. Then, media was removed and cells were fixed in 4% PFA. Cells were then visualized using a fluorescent microscope (Nikon Eclipse-ci-SRS). Experiments were conducted 5 times in triplicate for each experimental condition.
To measure the effects of biotin-HDAP2 on the mitochondrial potential and cellular oxidative stress, cells were cultured in DMEM/F12 without fetal bovine serum (FSB) in the presence or absence of biotin-HDAP2 (1 μM). […]
Unless otherwise noted, data for all tissue culture experiments were collected from three independent trials, with each experiment done in triplicate. […] Photooxidation of the indicator dyes were minimized by using single exposures to the fluorescence for each field imaged. Fluorescence intensity was analyzed using ImageJ (NIH), and MTR and CM-H2DCFDA fluorescence were normalized to Hoechst fluorescence to account for differences in cell number in each field. […] All data are expressed as means±SEM.

MDBK cells [4] = assay: NAO binding to mitochondria in MDBK cells; format: cell-based, bovine; details: NAO 1 μM, biotin-HDAP2 10 μM

In the case of `N=C(N)NCCC[C@@H](NC(=O)[C@H](Cc1ccccc1)NC(=O)[C@H](Cc1ccccc1)NC(=O)[C@@H](CCCNC(=N)N)NC(=O)CCCC[C@@H]1SC[C@@H]2NC(=O)N[C@@H]21)C(N)=O` [biotin-HDAP2, Biotin-dArg-Phe-Phe-dArg-NH2] (Biotin-[dR]FF[dR]-NH2), the “effect on CCCP-mediated mitochondrial depolarization” value (ARPE-19 cells) is reported as “prevented CCCP-mediated decreases in the mitochondrial membrane potential in a dose-dependent manner”, the “effect on CCCP-mediated mitochondrial depolarization” value (ARPE-19 cells; listed as Biotin-HDAP2) is reported as “prevented mitochondrial depolarization in a dose-dependent manner” and the EC50 (MDBK cells [1]) is reported as ~0.3 µM. The “Nile Red shift” value [2] was “no shift could be detected”, the “oxidative stress in starved cells” value (MDBK cells [3]; serum free 5-7 days, 100 nM CM-H2DCFDA) was “prevented oxidative stress in starved cells” and the “reduction in CM-H2DCFDA fluorescence compared to control” value (MDBK cells [3]; serum-free) was > 80% and 80%. The “NAO binding to mitochondria” value (MDBK cells [4]) was “inhibited NAO binding to mitochondria in MDBK cells”.
